These results are taken from patent publication US11760722B2 (priority 2022, dated 2023).

The target of one test is T1, COVID-19 WT Mpro (Severe acute respiratory syndrome coronavirus 2, UniProt P0DTD1).
T1 construct: The C-His6-tagged COVID-19 WT Mpro (NC_045512); His6 (C); host or cells: E. coli
As to the kind of experiment: biochemical. Conditions: WT Mpro 25 nM, substrate 25 μM, 30 min pre-incubation; several values in a cell = repeat determinations.

Test [1] deals with human coronavirus (HCoV) 229E. As to the kind of experiment: microbe, parasite or virus in culture. The test is classed as cell-based, human coronavirus 229E. The conditions noted are these: unidentified human coronavirus, 72 h, MRCS cells, HCoV 229E, 3 days, CellTiter Glo; read-out: 229E CPE EC50. On the technique in general: In ATP-based viability assays light output follows the ATP content of the culture.

The subject of a further test is SARS-CoV-2 replicon. As to the kind of experiment: microbe, parasite or virus in culture. The conditions noted are these: Severe acute respiratory syndrome coronavirus 2, Huh-7, 24 h; read-out: Replicon EC50. The test is classed as cell-based. (In general: Replicon systems follow genome replication, usually without infectious particles.)

As a reminder, the IC50 is the concentration that gives 50% inhibition. A high value points to weaker potency. The term EC50 denotes the midpoint of the concentration-response curve.

For the compound `CC(C)(C)[C@H](NC(=O)c1ccc2[nH]ncc2c1)C(=O)N1C[C@H]2[C@@H]([C@H]1C(=O)N[C@H](C#N)C[C@@H]1CCNC1=O)C2(C)C` [Compound 24], it took 0.143 µM to reach half-maximal inhibition against COVID-19 WT Mpro (IC50). Further, the figures for the EC50 (in test [1]; in the test with SARS-CoV-2 replicon) were 23.4 µM and 3.61 µM, respectively.
`COC(C)(C)C(=O)N[C@H](C(=O)N1C[C@H]2[C@@H]([C@H]1C(=O)N[C@H](C#N)C[C@@H]1CCNC1=O)C2(C)C)C(C)(C)C` [Compound 25] registered an IC50 at COVID-19 WT Mpro of 0.161 µM. For the same compound, the 50% effective concentration (EC50) in test [1] was determined as 2.47 µM; with SARS-CoV-2 replicon, 2.35 µM.
In turn, `CC(C)(C)[C@H](NC(=O)c1cc2ccccc2s1)C(=O)N1C[C@H]2[C@@H]([C@H]1C(=O)N[C@H](C#N)C[C@@H]1CCNC1=O)C2(C)C` [Compound 26] displayed an IC50 on COVID-19 WT Mpro of 0.41 µM. The EC50 is 5.86 µM in test [1] and 2.56 µM with SARS-CoV-2 replicon.
`CC(C)(C)[C@H](NC(=O)c1cc2ccccc2[nH]1)C(=O)N1C[C@H]2[C@@H]([C@H]1C(=O)N[C@H](C#N)C[C@@H]1CCNC1=O)C2(C)C` [Compound 28] registered a half-maximal inhibitory concentration (IC50) against COVID-19 WT Mpro of 0.728 µM. The 50% effective concentration (EC50) in test [1] was found to be 6.12 µM; in the test on SARS-CoV-2 replicon it was 2.05 µM.
In turn, `CC(C)(C)[C@H](NC(=O)c1ccc2cncn2c1)C(=O)N1C[C@H]2[C@@H]([C@H]1C(=O)N[C@H](C#N)C[C@@H]1CCNC1=O)C2(C)C` [Compound 29] returned a concentration for half-maximal inhibition (IC50) on COVID-19 WT Mpro of 0.405 µM. Further, the concentration giving a half-maximal response (EC50) (in test [1]; in the test on SARS-CoV-2 replicon) was over 30 µM each time.
Compound `CC(C)(C)[C@H](NC(=O)c1c(F)c(F)c(F)c(F)c1F)C(=O)N1C[C@H]2[C@@H]([C@H]1C(=O)N[C@H](C#N)C[C@@H]1CCNC1=O)C2(C)C` [Compound 30] displayed a concentration for half-maximal inhibition (IC50) at COVID-19 WT Mpro of 0.714 µM. Moreover, the values for the EC50 (in test [1]; in the test on SARS-CoV-2 replicon) were 1.8 µM and 3.56 µM, respectively.
With `CC(C)(C)[C@H](NC(=O)c1cn2ccccc2n1)C(=O)N1C[C@H]2[C@@H]([C@H]1C(=O)N[C@H](C#N)C[C@@H]1CCNC1=O)C2(C)C` [Compound 31], the IC50 at COVID-19 WT Mpro is 2.75 µM. Further, the EC50 in test [1] is over 30 µM; with SARS-CoV-2 replicon, 22.2 µM.
Turning to `CC(C)(C)OC(=O)N1c2ccccc2CC1C(=O)N[C@H](C(=O)N1C[C@H]2[C@@H]([C@H]1C(=O)N[C@H](C#N)C[C@@H]1CCNC1=O)C2(C)C)C(C)(C)C` (stereo partly drawn) [Compound 36], the IC50 against COVID-19 WT Mpro came out at 0.617 µM. Also, the EC50 in test [1] stood at 15.6 µM; with SARS-CoV-2 replicon, 2.75 µM.
At COVID-19 WT Mpro, `CC(C)(C)OC(=O)N1[C@@H](C(=O)N[C@H](C(=O)N2C[C@H]3[C@@H]([C@H]2C(=O)N[C@H](C#N)C[C@@H]2CCNC2=O)C3(C)C)C(C)(C)C)C[C@H]2CCCC[C@H]21` [Compound 37] showed a 50% inhibitory concentration (IC50) of 2.15 µM. The EC50 in test [1] is over 30 µM; in the test with SARS-CoV-2 replicon it was 4.49 µM.
The like results for `CN(C(=O)OC(C)(C)C)C(C)(C)C(=O)N[C@H](C(=O)N1C[C@H]2[C@@H]([C@H]1C(=O)N[C@H](C#N)C[C@@H]1CCNC1=O)C2(C)C)C(C)(C)C` [Compound 38] were, in that order, 9.82 µM, over 30 µM and over 30 µM.
Take `CN(C)C(=O)N[C@H](C(=O)N1C[C@H]2[C@@H]([C@H]1C(=O)N[C@H](C#N)C[C@@H]1CCNC1=O)C2(C)C)C(C)(C)C` [Compound 39, (1R,2S,5S)—N—((S)-1-cyano-2-((S)-2-oxopyrrolidin-3-yl)ethyl)-3-((S)-2-(3,3-dimethylureido)-3,3-dimethylbutanoyl)-6,6-dimethyl-3-azabicyclo[3.1.0]hexane-2-carboxamide]: the 50% inhibitory concentration (IC50) on COVID-19 WT Mpro was 0.421 µM. In addition, the 50% effective concentration (EC50) is over 30 µM in test [1] and 17.6 µM in the test with SARS-CoV-2 replicon.
The like results for `CC(C)(C)[C@H](NC(=O)c1nc2ccccc2[nH]1)C(=O)N1C[C@H]2[C@@H]([C@H]1C(=O)N[C@H](C#N)C[C@@H]1CCNC1=O)C2(C)C` [Compound 41] were, in that order, 7.88 µM, over 30 µM and over 30 µM.
